{"source": "ChEMBL document CHEMBL6177982", "about": "“Structural Optimization of Pyrazole Compounds as Hsp90 Regulators with Enhanced Antitumor Activity” (J Med Chem, 2025)", "key": {"Homo sapiens": {"species": "Homo sapiens", "assay": "Covalent binding affinity to His-tagged C-terminal HSP90 C598A mutant (unknown origin) assessed as two phase melting curve at 100 uM incubated for 4 hrs by SYPRO fluorescent dye based thermal shift assay"}, "[1]": {"assay": "Clearance in male Sprague-Dawley rat at 1 mg/kg, iv by LC-MS/MS analysis", "assay_type": "ADME, organism-based", "details": "in vivo"}, "[2]": {"assay": "AUC (0 to infinity) in male Sprague-Dawley rat at 10 mg/kg, IG by LC-MS/MS analysis", "assay_type": "ADME, organism-based", "details": "in vivo, po"}, "HCT-116 [3]": {"system": "HCT-116", "assay": "Upregulation of HSP90 level in human HCT-116 cells at 0.1 to 5 uM incubated for 24 hrs by Western blot analysis", "assay_type": "functional, cell-based", "details": "dose 0.1-5 µM"}, "[4]": {"assay": "Apparent volume of distribution in male Sprague-Dawley rat at 10 mg/kg, IG by LC-MS/MS analysis", "assay_type": "ADME, organism-based", "details": "in vivo, po"}, "[5]": {"assay": "Clearance in male Sprague-Dawley rat at 5 mg/kg, ip by LC-MS/MS analysis", "assay_type": "ADME, organism-based", "details": "in vivo"}, "[6]": {"assay": "Toxicity in female Balb/c nude mouse xenografted with human HCT-116 cells assessed as pathological changes in heart at 5 to 30 mg/kg, ip administered every two days for 14 days by H and E staining based analysis", "assay_type": "organism-based", "details": "in vivo, 336 h, dose 5-30 mg/kg, time 14 day"}, "[7]": {"assay": "Cmax in male Sprague-Dawley rat at 1 mg/kg, iv by LC-MS/MS analysis", "assay_type": "ADME, organism-based", "details": "in vivo"}, "[8]": {"assay": "Metabolic stability in human liver microsomes assessed as terminal elimination half-life at 1 uM preincubated for 5 mins followed by NADPH addition and measured up to 120 mins by LC-MS/MS analysis", "assay_type": "ADME, Microsome", "details": "time < 125 min, read-out: LambdaZ (converted)"}, "HCT-116 [9]": {"system": "HCT-116", "assay": "Inhibition of Myc-tagged HSP90 (unknown origin)/CDK4 (unknown origin) protein-protein interaction transfected in human HCT-116 cells at 1 to 5 uM incubated for 12 hrs by co-immunoprecipitation analysis", "assay_type": "cell-based", "details": "dose 1-5 µM"}, "Mus musculus [10]": {"system": "Mus musculus", "assay": "In vivo induction of CDK4 degradation in female Balb/c nude mouse xenografted with human HCT-116 cells assessed as decrease in CDK4 protein level in tumor at 5 to 30 mg/kg, ip administered every two days for 14 days by Western blot analysis", "assay_type": "functional, organism-based", "details": "dose 5-30 mg/kg, time 14.0 day"}, "[11]": {"assay": "Volume of distribution at steady state in male Sprague-Dawley rat at 1 mg/kg, iv by LC-MS/MS analysis", "assay_type": "ADME, organism-based", "details": "in vivo, read-out: Vdss"}, "HT-1080": {"system": "HT-1080", "assay": "Antiproliferative activity against human HT-1080 cells assessed as inhibition of cell proliferation incubated for 72 hrs by MTT assay", "assay_type": "functional, cell-based", "details": "HT-1080, 72 h"}, "[12]": {"molecular_target": "Heat shock protein HSP 90-beta/Hsp90 co-chaperone Cdc37 (Homo sapiens) (UniProt P08238+Q16543)", "assay": "Inhibition of Myc-tagged HSP90 (unknown origin)/CDC37 (unknown origin) protein-protein interaction transfected in human HCT-116 cells incubated for 12 hrs by co-immunoprecipitation analysis", "assay_type": "cell-based", "details": "dose 0.5-5 µM"}, "[13]": {"molecular_target": "T1, Heat shock protein HSP 90-alpha (Homo sapiens, UniProt P07900)", "assay": "Binding affinity to His-tagged HSP90alpha (unknown origin) assessed as dissociation constant by SPR analysis"}, "[14]": {"assay": "Cmax in male Sprague-Dawley rat at 10 mg/kg, IG by LC-MS/MS analysis", "assay_type": "ADME, organism-based", "details": "in vivo, po"}, "[15]": {"assay": "Toxicity in female Balb/c nude mouse xenografted with human HCT-116 cells assessed as effect on heart weight at 5 to 30 mg/kg, ip administered every two days for 14 days", "assay_type": "organism-based", "details": "in vivo, 336 h, dose 5-30 mg/kg, time 14 day"}, "[16]": {"assay": "Metabolic stability in rat liver microsomes assessed as parent compound remaining at 1 uM preincubated for 5 mins followed by NADPH addition and measured after 30 mins by LC-MS/MS analysis", "assay_type": "ADME, Microsome", "details": "time 35 min, read-out: Stability"}, "[17]": {"assay": "Cmax in male Sprague-Dawley rat at 5 mg/kg, ip by LC-MS/MS analysis", "assay_type": "ADME, organism-based", "details": "in vivo"}, "[18]": {"assay": "Stability of compound in simulated intestinal fluid at 100 uM incubated for 12 hrs", "assay_type": "physicochemical", "details": "simulated gi fluid"}, "Mus musculus [19]": {"system": "Mus musculus", "assay": "Upregulation of HSP70 protein level in female Balb/c mouse tumor xenografted with human HCT-116 cells at 5 to 30 mg/kg, ip administered every two days for 14 days by Western blot analysis", "assay_type": "functional, organism-based", "details": "dose 5-30 mg/kg, time 14.0 day"}, "HCT-116 [20]": {"system": "HCT-116", "assay": "Inhibition of Myc-tagged HSP90 C598A mutant (unknown origin)/CDK4 (unknown origin) protein-protein interaction transfected in human HCT-116 cells at 1 to 5 uM incubated for 12 hrs by co-immunoprecipitation analysis", "assay_type": "cell-based", "details": "dose 1-5 µM"}, "[21]": {"molecular_target": "T1, Heat shock protein HSP 90-alpha", "assay": "Covalent binding affinity to recombinant full-length HSP90alpha (unknown origin) at C598 residue assessed as appearance of compound-modified peptide incubated for 12 hrs by LC-MS/MS analysis"}, "[22]": {"assay": "Tmax in male Sprague-Dawley rat at 10 mg/kg, IG by LC-MS/MS analysis", "assay_type": "ADME, organism-based", "details": "in vivo, po"}, "HCT-116 [23]": {"system": "HCT-116", "assay": "Antiproliferative activity against human HCT-116 cells assessed as inhibition of cell proliferation incubated for 24 hrs by MTT assay", "assay_type": "functional, cell-based", "details": "HCT-116, 24 h"}, "[24]": {"assay": "Bioavailability in male Sprague-Dawley rat at 5 mg/kg, ip by LC-MS/MS analysis", "assay_type": "ADME, organism-based", "details": "in vivo"}, "[25]": {"molecular_target": "T2, Heat shock protein HSP90 (Homo sapiens) (UniProt P07900+P08238)", "assay": "Covalent binding affinity to wildtype His-tagged C-terminal HSP90 (unknown origin) assessed as two phase melting curve at 100 uM incubated for 4 hrs by SYPRO fluorescent dye based thermal shift assay", "assay_type": "protein assay"}, "[26]": {"assay": "Tmax in male Sprague-Dawley rat at 1 mg/kg, iv by LC-MS/MS analysis", "assay_type": "ADME, organism-based", "details": "in vivo"}, "HCT-116 [27]": {"system": "HCT-116", "assay": "Induction of AKT degradation in human HCT-116 cells incubated for 24 hrs by Western blot analysis", "assay_type": "cell-based", "details": "dose 0.1-5 µM"}, "[28]": {"assay": "Toxicity in female Balb/c nude mouse xenografted with human HCT-116 cells assessed as pathological changes in lung at 5 to 30 mg/kg, ip administered every two days for 14 days by H and E staining based analysis", "assay_type": "organism-based", "details": "in vivo, 336 h, dose 5-30 mg/kg, time 14 day"}, "[29]": {"assay": "Half-life in male Sprague-Dawley rat at 10 mg/kg, IG by LC-MS/MS analysis", "assay_type": "ADME, organism-based", "details": "in vivo, po"}, "[30]": {"assay": "Stability of compound in simulated gastric fluid at 100 uM incubated for 12 hrs", "assay_type": "physicochemical", "details": "simulated gi fluid"}, "HCT-116 [31]": {"system": "HCT-116", "assay": "Inhibition of Myc-tagged HSP90 C598A mutant (unknown origin)/CDC37 (unknown origin) protein-protein interaction transfected in human HCT-116 cells at 0.5 to 5 uM incubated for 12 hrs by co-immunoprecipitation analysis", "assay_type": "cell-based", "details": "dose 0.5-5 µM"}, "[32]": {"assay": "Toxicity in female Balb/c nude mouse xenografted with human HCT-116 cells assessed as effect on kidney weight at 5 to 30 mg/kg, ip administered every two days for 14 days", "assay_type": "organism-based", "details": "in vivo, 336 h, dose 5-30 mg/kg, time 14 day"}, "[33]": {"assay": "Apparent volume of distribution in male Sprague-Dawley rat at 1 mg/kg, iv by LC-MS/MS analysis", "assay_type": "ADME, organism-based", "details": "in vivo, read-out: Vz"}, "SK-BR-3": {"system": "SK-BR-3", "assay": "Antiproliferative activity against human SK-BR-3 cells assessed as inhibition of cell proliferation incubated for 72 hrs by MTT assay", "assay_type": "functional, cell-based", "details": "SK-BR-3, 72 h"}, "[34]": {"molecular_target": "T2, Heat shock protein HSP90 (Homo sapiens)", "assay": "Induction of thermal stabilization of HSP90 in human HCT-116 cells at 10 uM at 53 to 55 degreeC by CETSA based Western blot analysis", "assay_type": "cell-based"}}, "note": "Active and inactive are the calls of the source. No cut-off for these calls is given here.", "data": [{"molecule": "O=S(=O)(/C=C/c1cn(-c2ccccc2)nc1-c1cccnc1)c1ccccc1", "values": [{"measurement": "Activity", "setting": "Homo sapiens", "result": "inactive"}, {"measurement": "clearance", "setting": "[1]", "result": 11.8, "unit": "mL/min/kg"}, {"measurement": "AUC(0-inf)", "setting": "[2]", "result": 9810, "unit": "ng·h/mL"}, {"measurement": "Activity", "setting": "HCT-116 [3]", "result": "inactive"}, {"measurement": "Vz", "setting": "[4]", "result": 3.18, "unit": "L/kg"}, {"measurement": "CL/F", "setting": "[5]", "result": 12.2, "unit": "mL/min/kg"}, {"measurement": "Activity", "setting": "[6]", "result": "Non-toxic"}, {"measurement": "Cmax", "setting": "[7]", "result": 3680, "unit": "ng/mL"}, {"measurement": "half-life at 1 µM", "setting": "[8]", "result": 53.4, "unit": "min"}, {"measurement": "inhibition", "setting": "HCT-116 [9]", "result": "Active"}, {"measurement": "Activity", "setting": "Mus musculus [10]", "result": "Active"}, {"measurement": "Vd", "setting": "[11]", "result": 0.52, "unit": "L/kg"}, {"measurement": "IC50", "setting": "HT-1080", "result": 2710, "unit": "nM"}, {"measurement": "inhibition", "setting": "[12]", "result": "Dose-dependent-effect"}, {"measurement": "Kd", "setting": "[13]", "result": 1370, "unit": "nM"}, {"measurement": "Cmax", "setting": "[14]", "result": 2400, "unit": "ng/mL"}, {"measurement": "Activity", "setting": "[15]", "result": "Non-toxic"}, {"measurement": "remaining at 0.5 h, 1 µM", "setting": "[16]", "result": 58, "unit": "%"}, {"measurement": "Cmax", "setting": "[17]", "result": 8350, "unit": "ng/mL"}, {"measurement": "Stability", "setting": "[18]", "result": "Stable"}, {"measurement": "Activity", "setting": "Mus musculus [19]", "result": "inactive"}, {"measurement": "inhibition", "setting": "HCT-116 [20]", "result": "inactive"}, {"measurement": "Activity", "setting": "[21]", "result": "Active"}, {"measurement": "Tmax", "setting": "[22]", "result": 52.8, "unit": "min"}, {"measurement": "IC50", "setting": "HCT-116 [23]", "result": 6360, "unit": "nM"}, {"measurement": "bioavailability", "setting": "[24]", "result": 92.5, "unit": "%"}, {"measurement": "Activity", "setting": "[25]", "result": "Active"}, {"measurement": "Tmax", "setting": "[26]", "result": 1.02, "unit": "min"}, {"measurement": "Activity", "setting": "HCT-116 [27]", "result": "Dose-dependent-effect"}, {"measurement": "Activity", "setting": "[28]", "result": "Non-toxic"}, {"measurement": "half-life", "setting": "[29]", "result": 121, "unit": "min"}, {"measurement": "Stability", "setting": "[30]", "result": "Stable"}, {"measurement": "inhibition", "setting": "HCT-116 [31]", "result": "inactive"}, {"measurement": "Activity", "setting": "[32]", "result": "Non-toxic"}, {"measurement": "Vd", "setting": "[33]", "result": 0.86, "unit": "L/kg"}, {"measurement": "IC50", "setting": "SK-BR-3", "result": 1990, "unit": "nM"}, {"measurement": "Activity", "setting": "[34]", "result": "Active"}]}]}
